Columns and labels:
[1] = system: IM-9; experiment: Cell proliferation assay (cell panel, MTS); assay type: cell-based; conditions: Homo sapiens, 72 h; IM-9, Lymphoma, BRAF WT, NRAS MT, 3 days
Experimental: (§1) The proliferation assays against a cell panel were performed as described in ref.[18] Briefly, the cells were treated with DMSO or multiple concentrations of AZ304 for 3 days. The cell growth was determined using the CellTiter 96 Aqueous One Cell Proliferation Assay (Promega, Madison, WI). […] The assays were done in triplicate across different plates.
(§2) Anti-proliferative activity of AZ304 against a panel of cell lines with different BRAF and RAS genetic status. […] Cell growth was determined by MTS assay.

[2] = system: Calu-6; experiment: Cell proliferation assay (cell panel, MTS); assay type: cell-based; conditions: Homo sapiens, 72 h; Calu-6, Lung, BRAF WT, KRAS MT, 3 days
Experimental: as §1, §2

[3] = system: JVM-3; experiment: Cell proliferation assay (cell panel, MTS); assay type: cell-based; conditions: Homo sapiens, 72 h; JVM-3, Lymphoma, BRAF K601N, RAS WT, 3 days
Experimental: as §1, §2

[4] = system: SK-BR-3; experiment: Cell proliferation assay (cell panel, MTS); assay type: cell-based; conditions: Homo sapiens, 72 h; SK-BR-3, Breast, BRAF WT, RAS WT, 3 days
Experimental: as §1, §2

[5] = system: NIH: OVCAR-3; experiment: Cell proliferation assay (cell panel, MTS); assay type: cell-based; conditions: Homo sapiens, 72 h; NIH: OVCAR-3, Ovary, BRAF WT, RAS WT, 3 days
Experimental: as §1, §2

[6] = system: MC-F7; experiment: Cell proliferation assay (cell panel, MTS); assay type: cell-based; conditions: Homo sapiens, MCF7, 72 h; MC-F7, Breast, BRAF WT, RAS WT, 3 days
Experimental: as §1, §2

[7] = system: SK-MEL-28; experiment: Cell proliferation assay (cell panel, MTS); assay type: cell-based; conditions: Homo sapiens, 72 h; SK-MEL-28, Melanoma, BRAF V600E, RAS WT, 3 days
Experimental: as §1, §2

[8] = system: LNCaP clone FGC; experiment: Cell proliferation assay (cell panel, MTS); assay type: cell-based; conditions: Homo sapiens, 72 h, Prostate, BRAF WT, RAS WT, 3 days
Experimental: as §1, §2

[9] = system: SK-OV3; experiment: Cell proliferation assay (cell panel, MTS); assay type: cell-based; conditions: Homo sapiens, SK-OV-3, 72 h; SK-OV3, Ovary, BRAF WT, RAS WT, 3 days
Experimental: as §1, §2

[10] = system: RKO, HT-29, DiFi and Caco-2 cells; experiment: Western blot analysis in selected CRC cell lines; assay type: cell-based, human; conditions: four CRC cell lines
Experimental: (§3) For western-blotting in A375, A549 and MC-F7 cell lines, the detailed method was described in ref.[18] […] For western-blot in selected CRC cell lines, the cells were collected after treatment for indicated time and washed twice with cold PBS. Then cells were lysed in 1% Triton lysis buffer (50 mmol/L Tris-HCl, pH 7.4, 10 mmol/L EDTA, 100 mmol/L NaF, 150 mmol/L NaCl, 1% Triton X-100, 1 mmol/L PMSF 1 mmol/L Na3VO4 and 2 μg/mL aprotinin). After sonication and centrifugation, samples were quantified with the Lowry method. Next, all the protein samples were boiled at 95 °C for 5 min with 3× sampling buffer. After that, all the lysate samples were resolved by SDS polyacrylamide gel electrophoresis (SDS-PAGE) and followed by western blotting which means electronically transferred to nitrocellulose membranes. After blocking with 5% skim milk in TBST buffer (10 mM Tris-HCl pH 7.4, 150 mM NaCl, 0.1% Tween 20) at room temperature for 1 h, the blots were incubated with indicated antibodies shaking for 2 h, then overnight at 4 °C. Then the blots were washed four times with TBST buffer, and then incubated with secondary antibodies for 30 min at room temperature. After washing for another four times, the protein bands were detected with enhanced chemiluminescence reagent (SuperSignal Western Pico Chemiluminescent Substrate; Pierce, Rockford, IL, USA) and visualised with the Electrophoresis Gel Imaging Analysis System (DNR Bio-Imaging Systems, Jerusalem, Israel).
Two V600E mutant BRAF cell lines (RKO, HT-29) and two wild-type BRAF cell lines (DiFi, Caco-2) were treated with DMSO or increasing concentrations of AZ304 (0, 0.1, 1, 10, 100 μM), for 48 h (a) and 72 h (b). Viable cells were determined by MTT assay. c EdU incorporation assay. Four cells lines from (a) were treated with DMSO or indicated AZ304 for 24 h, followed by incubation with EdU and Hoechst in sequence. Hoechst 33342 (blue) and EdU (red) represent cell nuclei and nuclei of proliferative cells, respectively. The percentages of the EdU-positive cells are presented (right). Student’s t-tests were used for statistical analyses. Data are plotted as mean ± SD. *P < 0.05 vs. control; **P < 0.01 vs. control. d These four cells lines from (a) were treated with DMSO or 2 uM AZ304 for 6 h. Expression levels of phosphorylation ERK were analysed by Western blot. e BRAF mutant cell line RKO, and BRAF wild type cell line Caco-2 were treated with DMSO or 2 uM AZ304 for the indicated times. Expression levels of phosphorylation ERK were analysed by Western blot. […] Cell viability was determined by MTT assay

[11] = system: MC-F7 cells; experiment: Western blot p-ERK and p-p38; assay type: cell-based, human; conditions: MC-F7 (BRAF/RAS WT)
Experimental: as §3
(§4) Cells were incubated with DMSO or AZ304 for 75 min and p-ERK levels were determined using a p-ERK antibody based ELISA. […] Cells were incubated with DMSO or AZ304 (±EGF) for 75 min and p-ERK levels were determined using a p-ERK antibody based ELISA. […] (A375: BRAF V600E, A549: RAS MT; MC-F7: BRAF/RAS WT)

[12] = system: A549 cells; experiment: Western blot p-ERK and p-p38; assay type: cell-based, human
Experimental: as §3, §4

[13] = 2 μM AZ304, 10 μg/ml Cetuximab or combination, 36 h

COc1ccc2c(Nc3cc(NC(=O)c4cccc(C(C)(C)C#N)c4)ccc3C)ncnc2c1 [AZ304]
GI50 [1]: 0.9 µM | GI50 [2]: 5.51 µM | GI50 [3]: 1.68 µM | GI50 [4]: 11.6 µM | GI50 [5]: 11 µM | GI50 [6]: 10.1 µM | GI50 [7]: 0.5 µM | GI50 [8]: 3.32 µM | GI50 [9]: 6.18 µM | BRAF, p-ERK, p-AKT and p-mTOR levels [10, 13]: decreased | EGFR phosphorylation (p-EGFR) [10, 13]: increased | phosphorylated SRC and STAT3 [10, 13]: relatively reduced expression levels | cleaved caspase-9, caspase-3 and PARP ([10]; 2 μM AZ304, 10 μg/ml Cetuximab or combination, 48 h): overtly increased levels | p-ERK levels ([10]; 2 uM AZ304, 6 h): reduced p-ERK levels in all four CRC cell lines | effect on p-p38 ([11]; 75 min): potently inhibited p-p38 | effect on p-ERK ([11]; 75 min, 0.1, 1, 10 and 100 fold of A375 p-ERK EC50): concentration dependent reduction of p-ERK | effect on p-p38 ([12]; A549 (RAS MT), 75 min): potently inhibited p-p38 | effect on p-ERK ([12]; A549 (wild type BRAF, RAS MT), 75 min, 0.1, 1, 10 and 100 fold of A375 p-ERK EC50): concentration dependent reduction of p-ERK
